# Data from patent US20120302636A1, “METHOD OF TREATING A DISORDER ASSOCIATED WITH MTP” (priority 2009, published 2012).
# Like-named read-outs stand apart in the source and are kept apart here.
# Legend:
# [1] = Example 2: plasma and urine pharmacokinetics; type: in vivo, human
# Procedure: Each tablet contained 5 mg (BID), 10 mg (QD), 20 mg (QD), or 30 mg (QD).
# MTP = MTP (Homo sapiens, UniProt P55157)
# [2] = Example 3: pharmacokinetics; type: in vivo, human; conditions: both active groups
# [3] = Example 6: pharmacokinetics; type: in vivo, human
# From the text: Originally, the study was planned as 4 sequential cohorts of healthy male Caucasian subjects (Cohorts 1 to 4) followed by a cohort of male Caucasian patients with elevated triglycerides (HTG patients, Cohort 5). An additional cohort of healthy male Caucasian subjects (Cohort 4.1) was enrolled into the study (6 cohorts in total). The cohorts were as follows: Cohorts 1 to 4.1 had healthy Caucasian males, aged 18-45 years with a body weight of 60-100 kg and body mass index (BMI) between 19-28 kg/m^2 at screening and fasting triglycerides less than 1.69 mmol/L (less than 150 mg/dL) at the screening visit and Day-3. Cohort 5 had Caucasian males, aged 18-50 years with a body weight of 60-115 kg and BMI less than 35 kg/m^2 at screening and with elevated fasting triglycerides (TG≧1.69 mmol/L and <5.62 mmol/L; ≧150 mg/dL and <500 mg/dL) at the screening visit and Day-3.
# The planned treatment for Cohorts 1 to 4 was twice daily administration of 5 mg, 10 mg or 15 mg the compound of formula (I)/placebo, or once daily administration of 30 mg the compound of formula (1)/placebo. […] As only the compound of formula (I) 5 mg capsules were supplied for this study, doses were administered once daily to determine the maximum tolerated dose, and the planned doses for each subsequent cohort were amended based on the safety and tolerability data obtained from the preceding cohort. The dose level and dosing schedule planned for the patients in Cohort 5 was determined by the maximum tolerated dose and dosing schedule as reported from the planned Cohorts 1 to 4.1.
# Twelve healthy male Caucasian subjects were enrolled in each of Cohorts 1 to 4.1; dose cohorts were randomized in a ratio 9:3 to receive the compound of formula (I) or placebo, respectively, at the dose level associated with that cohort. Twelve male Caucasian patients with elevated triglycerides were randomized in a ratio of 8:4 to receive the compound of formula (I) or placebo, respectively, at the maximum tolerated dose level and dosing schedule.
# [4] = Example 1: plasma and urine concentrations by LC/MS/MS
# [5] = Example 5: pharmacokinetics; type: in vivo, human
# Procedure: Fifty-two Japanese patients with hyperlipidemia (LDL-C between 140 and 220 mg/dL; TG≦400 mg/dL) participated in the study. […] One group received a fixed dose of 2 mg per tablet through the entire study. The other group received escalating doses of 0.5 mg (weeks 1-4), 1 mg (weeks 5-8), and 2 mg (weeks 9-12). For the efficacy analysis, 50 subjects were observed (25 in the fixed-dose group and 25 in the dose escalation group).
# The objective of this study was preliminary evaluation of the efficacy (based on serum lipid levels), safety, and pharmacokinetics of the compound of formula (I) administered orally twice daily after breakfast and supper for 12 weeks as a fixed dose (4 mg/day) or escalating dose (1 mg/day, 2 mg/day and 4 mg/day) regimen in patients with hyperlipidemia.
# [6] = in vivo
# From the text: This example involved a clinical study of the compound of formula (I), which was a randomized, double-blind, placebo-controlled, parallel group study to evaluate the efficacy of the compound of formula (I) administered twice daily for twelve weeks in obese subjects.
# [7] = Example 7: ascending dose study in obese subjects, pharmacokinetics
# Procedure: This example involved a clinical study of the compound of formula (I), which was a randomized, double-blind, placebo-controlled, ascending dose study to evaluate the safety, tolerability and pharmacokinetics/pharmacodynamics of the compound of formula (I) tablets administered twice daily for two weeks in obese subjects.
# The subjects were separated into four arms of nine (one with ten) test subjects (which were administered the compound of formula (I)) and three placebo subjects.
# Chain of MTP (P55157 19-894, species assumed): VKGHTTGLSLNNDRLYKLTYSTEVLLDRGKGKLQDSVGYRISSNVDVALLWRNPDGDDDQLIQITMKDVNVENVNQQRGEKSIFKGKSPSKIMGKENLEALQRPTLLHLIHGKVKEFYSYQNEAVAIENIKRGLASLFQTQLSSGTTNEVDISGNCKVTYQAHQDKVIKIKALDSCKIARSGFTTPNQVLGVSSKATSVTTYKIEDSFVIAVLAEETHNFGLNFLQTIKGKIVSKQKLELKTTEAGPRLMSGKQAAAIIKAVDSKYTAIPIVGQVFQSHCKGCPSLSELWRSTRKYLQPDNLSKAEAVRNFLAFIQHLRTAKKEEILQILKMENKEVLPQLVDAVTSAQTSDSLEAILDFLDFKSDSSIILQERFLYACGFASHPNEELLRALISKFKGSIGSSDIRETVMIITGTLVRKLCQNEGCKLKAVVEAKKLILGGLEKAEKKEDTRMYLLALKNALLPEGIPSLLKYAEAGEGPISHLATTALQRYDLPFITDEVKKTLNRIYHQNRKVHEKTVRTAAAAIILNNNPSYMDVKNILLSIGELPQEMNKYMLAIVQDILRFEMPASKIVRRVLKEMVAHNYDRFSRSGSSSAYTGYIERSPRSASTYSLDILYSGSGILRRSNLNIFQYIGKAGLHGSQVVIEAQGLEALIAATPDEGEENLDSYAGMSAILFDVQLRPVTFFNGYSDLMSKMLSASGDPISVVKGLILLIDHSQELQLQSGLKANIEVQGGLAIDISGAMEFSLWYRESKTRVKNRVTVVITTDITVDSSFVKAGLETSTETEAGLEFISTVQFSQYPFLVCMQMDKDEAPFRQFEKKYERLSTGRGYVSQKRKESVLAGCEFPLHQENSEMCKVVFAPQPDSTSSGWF
# Chain of MTP (P07237 18-508 partner, species assumed): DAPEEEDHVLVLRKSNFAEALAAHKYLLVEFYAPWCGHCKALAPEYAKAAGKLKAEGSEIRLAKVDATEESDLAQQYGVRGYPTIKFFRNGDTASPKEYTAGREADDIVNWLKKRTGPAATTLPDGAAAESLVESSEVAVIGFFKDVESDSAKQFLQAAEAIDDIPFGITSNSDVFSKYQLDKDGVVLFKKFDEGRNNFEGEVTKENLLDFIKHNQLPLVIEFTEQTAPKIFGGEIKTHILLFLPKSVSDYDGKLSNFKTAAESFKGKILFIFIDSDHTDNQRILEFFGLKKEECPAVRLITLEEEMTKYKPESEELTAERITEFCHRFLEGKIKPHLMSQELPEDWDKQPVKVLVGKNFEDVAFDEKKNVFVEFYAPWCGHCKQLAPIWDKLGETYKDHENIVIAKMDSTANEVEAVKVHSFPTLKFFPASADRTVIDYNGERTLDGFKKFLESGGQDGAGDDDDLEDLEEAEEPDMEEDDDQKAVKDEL
structure (smiles),measurement,setting,value
"CN(C)C(=O)c1cc(CC(=O)O)ccc1NC(=O)c1ccccc1-c1ccc(C(F)(F)F)cc1 [metabolite M1, 2-(3-(dimethylcarbamoyl)-4-(4′-(trifluoromethyl)biphenyl-2-ylcarboxamido)phenyl)acetic acid]",Cmax and AUC0-24hr dose proportionality (M1),"[1]; 10, 20, 30 mg QD, initial dose Day 1",greater than a dose-proportional
same,Cmin of the metabolite M1,"[1]; Day 2 to 14, all groups",quantifiable
same,plasma metabolite M1,"[1]; after initial dose on Day 1, all groups",quantifiable
same,metabolite M1 in urine,[1]; all groups,excreted in urine
same,Cmax and AUC dose proportionality (M1),[1]; final dose on Day 14,dose-proportional
same,MTP inhibitory activity,MTP,no MTP inhibitory activity
same,MTP inhibitory activity,MTP; listed as M1,inactive
same,plasma metabolite M1,[2],quantifiable
same,mean apparent terminal half-life,"[3]; 5 mg BID, healthy",approximately 27 h
same,systemic availability (AUC0-τ and Cmax) in patients vs subjects with normal triglycerides,"[3]; 5 mg, Cohort 5 vs Cohort 1",appeared to be greater
same,mean apparent terminal half-life,"[3]; 5 mg, HTG patients",approximately 30 h
same,time to steady-state,"[3]; 5 to 20 mg QD and BID, healthy subjects and patients",~8 days
same,"extent of systemic exposure, dose proportionality","[3]; 5 to 20 mg QD, healthy",greater than dose-proportional
same,urinary recovery up to 72 h post-last dose,"[3]; 14 days administration, adjusted for molecular weight",up to 20 % of the total administered dose
same,urinary recovery,[3]; first administration,less than 8 % of the administered dose
same,mean Cmin,"[4]; 5 mg group, Day 2",8.33 ng/mL
same,mean Cmin,"[4]; 5 mg group, Day 6",25.97 ng/mL
same,mean Cmin relative to Day 2,"[4]; 5 mg group, Day 6",3.12 times
same,mean Cmin,"[4]; 15 mg group, Day 2",33.57 ng/mL
same,mean Cmin,"[4]; 15 mg group, Day 8",181.90 ng/mL
same,mean Cmin relative to Day 2,"[4]; 15 mg group, Day 8",5.42 times
same,excretion in urine (metabolite),[4]; 5 and 15 mg groups,excreted in urine in all subjects
same,detection of metabolite in plasma,[4]; all subjects receiving compound,detected in plasma of all subjects
same,mean Cmin,"[5]; dose escalation group, Week 10",12.15 ng/mL
same,mean Cmin,"[5]; dose escalation group, Week 10, females",12.06 ng/mL
same,mean Cmin,"[5]; dose escalation group, Week 10, males",12.28 ng/mL
same,mean Cmin,"[5]; dose escalation group, Week 12",13.47 ng/mL
same,mean Cmin,"[5]; dose escalation group, Week 12, females",15.28 ng/mL
same,mean Cmin,"[5]; dose escalation group, Week 12, males",10.76 ng/mL
same,mean Cmin,"[5]; fixed-dose group, Week 10",12.20 ng/mL
same,mean Cmin,"[5]; fixed-dose group, Week 12",10.74 ng/mL
same,mean trough concentration of M1,[6],increased in a dose-related manner
same,mean t1/2,[7]; 1 mg group,70.1 h
same,time to reach steady-state,[7]; 1 and 2.5 mg groups,7 days
same,Cmax and AUC0-τ dose proportionality (M1),[7]; 1 to 5 mg,dose proportional increase
same,time to reach steady-state,[7]; 3.5 and 5 mg groups,5 days
